Like-named read-outs stand apart in the source and are kept apart here.
Key:
SARS-CoV-2 M^pro [1] = target: T1, SARS-CoV-2 M^pro (Severe acute respiratory syndrome coronavirus 2, UniProt P0DTD1); test: biochemical; conditions: mean ± SD from three experiments
SARS-CoV-2 M^pro [2] = target: T1, SARS-CoV-2 M^pro; test: Differential scanning fluorimetry (DSF) assay; format: binding; conditions: mean ± SD (n = 3)
Experimental: M^pro was mixed with tested compounds and 5 × SYPRO Orange dye (Sigma) avoiding from light. The thermal denaturation spectra were run from 20 °C to 95 °C at a gradient of 1.5 °C/min (CFX96, BioRad). Data were analyzed by Boltzmann model to calculate the melt temperature (Tm). The equation ΔTm = Tm(compound) − Tm(DMSO) was used to calculate the thermal shift (ΔTm). The values are presented as mean ± SD (n = 3).

SMILES | IC50 (SARS-CoV-2 M^pro [1]) [nM] | IC50 (SARS-CoV-2 M^pro [1]; […]) [nM] | also measured
O=C(NCc1ncco1)C(=O)[C@@H](Cc1ccccc1)NC(=O)c1ccccc1 [1d] | 51500 ± 940 | – | –
Cc1csc(CNC(=O)C(=O)[C@@H](Cc2ccccc2)NC(=O)c2ccccc2)n1 [1i] | 40700 ± 1500 | – | –
C[C@@H](NC(=O)CC1CC(F)(F)C1)C(=O)N[C@H](Cc1ccccc1)C(=O)C(=O)NCc1nccs1 [3u] | – | 17.2 ± 0.3 | –
O=C(NCc1nccs1)C(=O)[C@@H](Cc1ccccc1)NC(=O)c1cccc(F)c1 [3b] | – | 478 ± 4.8 | –
C[C@@H](NC(=O)C1CCCC(F)(F)C1)C(=O)N[C@H](Cc1ccccc1)C(=O)C(=O)NCc1nccs1 (stereo partly shown) [3s] | – | 28.3 ± 0.6 | –
COC[C@@H](NC(=O)C1CCC(F)(F)CC1)C(=O)N[C@H](Cc1ccccc1)C(=O)C(=O)NCc1nccs1 [3v] | – | 18.4 ± 1.3 | –
O=C(CNC(=O)c1cccc(F)c1)N[C@H](Cc1ccccc1)C(=O)C(=O)NCc1nccs1 [3l] | – | 538.2 ± 4.3 | –
O=C(NCc1nccs1)C(=O)[C@@H](Cc1ccccc1F)NC(=O)c1ccccc1 [2a] | 3500 ± 230 | – | –
O=C(NCc1ccon1)C(=O)[C@@H](Cc1ccccc1)NC(=O)c1ccccc1 [1f] | 54740 ± 350 | – | –
O=C(NCc1nccs1)C(=O)[C@@H](Cc1cccc(Cl)c1)NC(=O)c1ccccc1 [2f] | 1430 ± 150 | – | –
O=C(CCc1ccccc1)N[C@H](Cc1ccccc1)C(=O)C(=O)NCc1nccs1 [3e] | 1220 ± 100 | – | –
O=C(Cc1ccccc1)N[C@H](Cc1ccccc1)C(=O)C(=O)NCc1nccs1 [3d] | – | 949 ± 39.9 | –
O=C(CNC(=O)C1CCCC(F)(F)C1)N[C@H](Cc1ccccc1)C(=O)C(=O)NCc1nccs1 (stereo partly shown) [3o] | – | 45.8 ± 2.1 | –
O=C(CNC(=O)C1CCC(F)(F)C1)N[C@H](Cc1ccccc1)C(=O)C(=O)NCc1nccs1 (stereo partly shown) [3p] | – | 56.5 ± 5.4 | –
O=C(CC1CC(F)(F)C1)NCC(=O)N[C@H](Cc1ccccc1)C(=O)C(=O)NCc1nccs1 [3q] | – | 23.4 ± 2.2 | –
O=C(CNC(=O)c1ccc(F)cc1)N[C@H](Cc1ccccc1)C(=O)C(=O)NCc1nccs1 [3m] | – | 348.4 ± 3 | –
O=C(NCc1nccs1)C(=O)[C@@H](Cc1ccccc1)NC(=O)c1ccc(F)cc1 [3c] | 1310 ± 100 | – | –
O=C(CNC(=O)c1cnccn1)N[C@H](Cc1ccccc1)C(=O)C(=O)NCc1nccs1 [3h] | 3620 ± 270 | – | –
O=C(CNC(=O)c1ccccc1)N[C@H](Cc1ccccc1)C(=O)C(=O)NCc1nccs1 [3g] | 1860 ± 40 | – | –
O=C(NCc1cnc(Cl)s1)C(=O)[C@@H](Cc1ccccc1)NC(=O)c1ccccc1 [1j] | 95200 ± 5990 | – | –

SMILES | IC50 (SARS-CoV-2 M^pro [1]) [nM] | IC50 (SARS-CoV-2 M^pro [1]; […]) [nM] | also measured
O=C(NCc1nccs1)C(=O)[C@@H](Cc1ccc(Cl)c(Cl)c1)NC(=O)c1ccccc1 [2g] | 2030 ± 70 | – | –
O=C(NCc1nccs1)C(=O)[C@@H](Cc1ccccc1)NC(=O)c1ccccc1F [3a, (R)-N-(3,4-dioxo-1-phenyl-4-((thiazol-2-ylmethyl)amino)butan-2-yl)-2-fluorobenzamide] | – | 264 ± 4 | –
O=C(CNC(=O)c1ccccc1F)N[C@H](Cc1ccccc1)C(=O)C(=O)NCc1nccs1 [3k] | – | 998.3 ± 0.2 | –
O=C(NCc1cccs1)C(=O)[C@@H](Cc1ccccc1)NC(=O)c1ccccc1 [1b] | 77300 ± 2310 | – | –
O=C(CNC(=O)C1CCC(F)(F)CC1)N[C@H](Cc1ccccc1)C(=O)C(=O)NCc1nccs1 [3n] | – | 50.3 ± 2.6 | –
O=C(NCc1ncon1)C(=O)[C@@H](Cc1ccccc1)NC(=O)c1ccccc1 [1g] | 53100 ± 3340 | – | –
O=C(NCc1nccs1)C(=O)[C@@H](Cc1ccc(F)cc1)NC(=O)c1ccccc1 [2c, (R)-N-(1-(4-fluorophenyl)-3,4-dioxo-4-((thiazol-2-ylmethyl)amino)butan-2-yl)benzamide] | 1950 ± 290 | – | –
O=C(CNC(=O)c1cccnc1)N[C@H](Cc1ccccc1)C(=O)C(=O)NCc1nccs1 [3j] | 2230 ± 370 | – | –
O=C(CNC(=O)c1ccccn1)N[C@H](Cc1ccccc1)C(=O)C(=O)NCc1nccs1 [3i] | 2240 ± 100 | – | –
O=C(NCc1nccs1)C(=O)[C@@H](CC1CCCCC1)NC(=O)c1ccccc1 [2e] | 10500 ± 630 | – | –
O=C(NCc1nccs1)C(=O)[C@@H](Cc1cc(F)c(F)cc1F)NC(=O)c1ccccc1 [2d] | 3370 ± 180 | – | –
O=C(COc1ccccc1)N[C@H](Cc1ccccc1)C(=O)C(=O)NCc1nccs1 [3f] | – | 880.8 ± 1.2 | –
COC[C@@H](NC(=O)CC1CC(F)(F)C1)C(=O)N[C@H](Cc1ccccc1)C(=O)C(=O)NCc1nccs1 [3x] | – | 10.2 ± 0.1 | –
O=C(NCc1ncno1)C(=O)[C@@H](Cc1ccccc1)NC(=O)c1ccccc1 [1h] | 62300 ± 2070 | – | –
O=C(NCc1cocn1)C(=O)[C@@H](Cc1ccccc1)NC(=O)c1ccccc1 [1e] | – | – | IC50 (SARS-CoV-2 M^pro [1]; read-out: IC50 against SARS-CoV-2 M^pro (FRET)): 11400 ± 80 nM
O=C(NCc1ccco1)C(=O)[C@@H](Cc1ccccc1)NC(=O)c1ccccc1 [1c] | 37200 ± 510 | – | –
C[C@@H](NC(=O)C1CCC(F)(F)C1)C(=O)N[C@H](Cc1ccccc1)C(=O)C(=O)NCc1nccs1 (stereo partly shown) [3t] | – | 22.5 ± 0.7 | –
O=C(NCc1nccs1)C(=O)[C@@H](Cc1ccccc1)NC(=O)c1ccccc1 [1a, (R)-N-(3,4-dioxo-1-phenyl-4-((thiazol-2-ylmethyl)amino)butan-2-yl)benzamide] | 1300 | – | thermal shift (ΔTm) (SARS-CoV-2 M^pro [2]): 8.45 ± 0.35 °C
O=C(NCc1nccs1)C(=O)[C@@H](Cc1cccc(F)c1)NC(=O)c1ccccc1 [2b] | 2550 ± 20 | – | –

Reference: article PMC10018608 (Signal Transduction and Targeted Therapy, 2023)
